The text below walks through data of patent publication US12084472B2 (Ardelyx, Inc., priority 2015, dated 2024).

The target of the test is T1, human TGR5 (Homo sapiens, UniProt Q8TDU6).
T1 construct: expressed in transfected cells; host or cells: HEK293
T1 sequence (Q8TDU6 1-330): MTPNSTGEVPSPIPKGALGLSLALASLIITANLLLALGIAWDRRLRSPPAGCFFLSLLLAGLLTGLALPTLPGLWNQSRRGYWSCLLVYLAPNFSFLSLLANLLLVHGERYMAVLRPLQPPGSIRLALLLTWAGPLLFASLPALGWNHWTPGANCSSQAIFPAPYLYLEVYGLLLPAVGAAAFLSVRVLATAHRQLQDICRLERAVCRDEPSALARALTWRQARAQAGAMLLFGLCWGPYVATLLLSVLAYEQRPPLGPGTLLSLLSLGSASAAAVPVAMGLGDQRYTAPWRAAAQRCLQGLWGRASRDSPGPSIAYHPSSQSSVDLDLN
Put plainly: Cell-based TGR5 assay (cAMP generation, HTRF). The settings on record: HEK293 cells stably transfected with human TGR5; cAMP by HTRF; 30 minutes at 37° C.; read-out: pEC50 Human TGR5 (converted). Summed up: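 First, compounds in 3-fold serial dilution were placed in HBSS with 10 mM HEPES pH 7.4 and 0.5 mM IBMX. Next, human TGR5-expressing HEK293 cells were added and incubated 30 min at 37° C. Finally, cAMP was detected by HTRF and pEC50 derived by logistic fitting.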
As for `Cc1ccc(C(C)CCCCNC(=O)NC[C@H](O)[C@@H](O)[C@H](O)[C@H](O)CO)cc1COC1(c2cnccc2-c2ccccc2OC2CC2)CC1` (stereo partly drawn) [Compound I-276, 1-{5-[3-({1-[4-(2-cyclopropoxyphenyl)pyridin-3-yl]cyclopropoxy}methyl)-4-methylphenyl]hexyl}-3-[(2S,3R,4R,5R)-2,3,4,5,6-pentahydroxyhexyl]urea], the EC50 was less than 0.1 µM.

For the compound `O=C(NC[C@H](O)[C@@H](O)[C@H](O)[C@H](O)CO)[C@H]1CC[C@H](CNS(=O)(=O)c2ccc(Cl)c(COC3(c4cnccc4-c4ccccc4OC4CC4)CC3)c2)CC1` [Compound I-436, (1r,4r)-4-[4-chloro-3-({1-[4-(2-cyclopropoxyphenyl)pyridin-3-yl]cyclopropoxy}methyl)benzenesulfonamidomethyl]-N-[(2S,3R,4R,5R)-2,3,4,5,6-pentahydroxyhexyl]cyclohexane-1-carboxamide], the EC50 was less than 0.1 µM.

For `CCS(=O)(=O)CCN(CCCCC(C)c1ccc(Cl)c(CNC2(c3cnccc3-c3ccccc3OC3CC3)CC2)c1)C(=O)[C@@H](O)[C@@H](O)[C@H](O)[C@@H](O)CO` (stereo partly drawn) [Compound I-296, (2S,3S,4R,5S)-N-(5-{4-chloro-3-[({1-[4-(2-cyclopropoxyphenyl)pyridin-3-yl]cyclopropyl}amino)methyl]phenyl}hexyl)-N-[2-(ethanesulfonyl)ethyl]-2,3,4,5,6-pentahydroxyhexanamide], the EC50 is less than 0.1 µM.

Consider `O=C(O)CCCCc1cc(Cl)c(COC2(c3cnccc3-c3ccccc3OC3CC3)CC2)cc1Cl` [Compound I-157, 5-[2,5-dichloro-4-({1-[4-(2-cyclopropoxyphenyl)pyridin-3-yl]cyclopropoxy}methyl)phenyl]pentanoic acid], for which the EC50 was less than 0.1 µM.

Consider `CN(C[C@H](O)[C@@H](O)[C@H](O)[C@H](O)CO)C(=O)CCCCc1ccc(Cl)c(COC2(c3cnccc3-c3ccccc3OC3CC3)CC2)c1` (stereo in doubt) [Compound I-232, 5-[4-chloro-3-({1-[4-(2-cyclopropoxyphenyl)pyridin-3-yl]cyclopropoxy}methyl)phenyl]-N-methyl-N-[(2S,3R,4R,5R)-2,3,4,5,6-pentahydroxyhexyl]pentanamide], for which the EC50 is less than 0.1 µM.

As to `O=C(CCCCc1cc(Cl)c(COC2(c3cnccc3-c3ccccc3OC3CC3)CC2)cc1Cl)N[C@@H](CN1CCOCC1)[C@@H](O)[C@H](O)[C@H](O)CO` (stereo in doubt) [Compound I-160, 5-[2,5-dichloro-4-({1-[4-(2-cyclopropoxyphenyl)pyridin-3-yl]cyclopropoxy}methyl)phenyl]-N-[(2S,3R,4S,5R)-3,4,5,6-tetrahydroxy-1-(morpholin-4-yl)hexan-2-yl]pentanamide], the EC50 was less than 0.1 µM.

As to `CN(CCCCNC(=O)NC[C@H](O)[C@@H](O)[C@H](O)[C@H](O)CO)S(=O)(=O)c1cc(CNC2(c3cnccc3-c3ccccc3OC3CC3)CC2)c(Cl)cc1F` [Compound I-474, 1-(4-{N-methyl4-chloro-5-[({1-[4-(2-cyclopropoxyphenyl)pyridin-3-yl]cyclopropyl}amino)methyl]-2-fluorobenzenesulfonamido}butyl)-3-[(2S,3R,4R,5R)-2,3,4,5,6-pentahydroxyhexyl]urea], the EC50 was less than 0.1 µM.

For the compound `CCOC(=O)NCCCN(CCCSc1ccc(Cl)c(CNC2(c3cnccc3-c3ccccc3OC3CC3)CC2)c1)C(=O)[C@@H](O)[C@@H](O)[C@H](O)[C@@H](O)CO` [Compound I-590, ethyl N-{3-[(2S,3S,4R,5S)-N-[3-({4-chloro-3-[({1-[4-(2-cyclopropoxyphenyl)pyridin-3-yl]cyclopropyl}amino)methyl]phenyl}sulfanyl)propyl]-2,3,4,5,6-pentahydroxyhexanamido]propyl} carbamate], the EC50 was less than 0.1 µM.

Regarding `O=C(O)CNC(=O)N(CCCCc1cc(Cl)c(COC2(c3cnccc3-c3ccccc3OC3CC3)CC2)cc1Cl)C[C@H](O)[C@@H](O)[C@H](O)[C@H](O)CO` (stereo in doubt) [Compound I-197, 2-[({4-[2,5-dichloro-4-({1-[4-(2-cyclopropoxyphenyl)pyridin-3-yl]cyclopropoxy}methyl)phenyl]butyl}[(2S,3R,4R,5R)-2,3,4,5,6-pentahydroxyhexyl]carbamoyl)amino]acetic acid], the EC50 was 0.126 to 1 µM.

With `NC(=O)CN(CCCCCSc1ccc(Cl)c(CNC2(c3cnccc3-c3ccccc3OC3CC3)CC2)c1)C(=O)[C@@H](O)[C@@H](O)[C@H](O)[C@@H](O)CO` [Compound I-610, (2S,3S,4R,5S)-N-(carbamoylmethyl)-N-[5-({4-chloro-3-[({1-[4-(2-cyclopropoxyphenyl)pyridin-3-yl]cyclopropyl}amino)methyl]phenyl}sulfanyl)pentyl]-2,3,4,5,6-pentahydroxyhexanamide], the EC50 is less than 0.1 µM.

Take `CN(CCCCc1cc(Cl)c(COC2(c3cnccc3-c3ccccc3OC3CC3)CC2)cc1Cl)C(=O)NC[C@H](O)[C@@H](O)[C@H](O)[C@H](O)CO` (stereo in doubt) [Compound I-204, 1-{4-[2,5-dichloro-4-({1-[4-(2-cyclopropoxyphenyl)pyridin-3-yl]cyclopropoxy}methyl)phenyl]butyl}-1-methyl-3-[(2S,3R,4R,5R)-2,3,4,5,6-pentahydroxyhexyl]urea]: the EC50 is less than 0.1 µM.

On to `Cc1ccc(C(C)CCCN(C(=O)[C@@H](O)[C@@H](O)[C@H](O)[C@@H](O)CO)C2CCOCC2)cc1CNC1(c2cnccc2-c2ccccc2OC2CC2)CC1` (stereo partly drawn) [Compound I-304, (2S,3S,4R,5S)-N-(4-{3-[({1-[4-(2-cyclopropoxyphenyl)pyridin-3-yl]cyclopropyl}amino)methyl]-4-methylphenyl}pentyl)-2,3,4,5,6-pentahydroxy-N-(oxan-4-yl)hexanamide], for which the EC50 is less than 0.1 µM.

Consider `CC(C)N(CCCCNC(=O)NC[C@H](O)[C@@H](O)[C@H](O)[C@H](O)CO)S(=O)(=O)c1ccc(Cl)c(COC2(c3cnccc3-c3ccccc3OC3CC3)CCOC2)c1` (stereo partly drawn) [Compound I-750, 4-chloro-3-(((3-(4-(2-cyclopropoxyphenyl)pyridin-3-yl)tetrahydrofuran-3-yl)oxy)methyl)-N-isopropyl-N-(4-(3-((2S,3R,4R,5R)-2,3,4,5,6-pentahydroxyhexyl)ureido)butyl) benzenesulfonamide], for which the EC50 is less than 0.1 µM.

Take `O=C(NC[C@H](O)[C@@H](O)[C@H](O)[C@H](O)CO)c1ccc(CCc2ccc(Cl)c(COC3(c4cnccc4-c4ccccc4OC4CC4)CC3)c2)cc1` [Compound I-724, 4-(4-Chloro-3-((1-(4-(2-cyclopropoxyphenyl)pyridin-3-yl)cyclopropoxy)methyl)phenethyl)-N-((2S,3R,4R,5R)-2,3,4,5,6-pentahydroxyhexyl)benzamide]: the EC50 was 0.126 to 1 µM.

For the compound `NC(=O)CCN(C[C@H](O)[C@@H](O)[C@H](O)[C@H](O)CO)C(=O)CCCSc1ccc(Cl)c(COC2(c3cnccc3-c3ccccc3OC3CC3)CC2)c1` [Compound I-675, N-(2-carbamoylethyl)-4-{[4-chloro-3-({1-[4-(2-cyclopropoxyphenyl)pyridin-3-yl]cyclopropoxy}methyl)phenyl]sulfanyl}-N-[(2S,3R,4R,5R)-2,3,4,5,6-pentahydroxyhexyl]butanamide], the EC50 was 1.26 to 10 µM.

Consider `Cc1cc(COC2(c3cnccc3-c3ccccc3OC3CC3)CC2)c(Cl)cc1CCCCNC(=O)NC[C@H](O)[C@@H](O)[C@H](O)[C@H](O)CO` [Compound I-65, 1-[4-[5-chloro-4-([1-[4-(2-cyclopropoxyphenyl)pyridin-3-yl]cyclopropoxy]methyl)-2-methylphenyl]butyl]-3-[(2S,3R,4R,5R)-2,3,4,5,6-pentahydroxyhexyl]urea], for which the EC50 is less than 0.1 µM.

As for `O=C(NCCCC[C@H](NS(=O)(=O)c1ccc(Cl)c(COC2(c3cnccc3-c3ccccc3OC3CC3)CC2)c1)C(=O)O)NC[C@H](O)[C@@H](O)[C@H](O)[C@H](O)CO` [Compound I-483, (2S)-2-[4-chloro-3-({1-[4-(2-cyclopropoxyphenyl)pyridin-3-yl]cyclopropoxy}methyl)benzenesulfonamido]-6-({[(2S,3R,4R,5R)-2,3,4,5,6-pentahydroxyhexyl]carbamoyl}amino)hexanoic acid], the EC50 is 0.126 to 1 µM.

Regarding `CC(C)N(CCCCNC(=O)N[C@@H](CO)[C@@H](O)[C@H](O)[C@H](O)CO)S(=O)(=O)c1ccc(Cl)c(CNC2(c3cnccc3-c3ccccc3OC3CC3)CC2)c1` [Compound I-744, 4-chloro-3-(((1-(4-(2-cyclopropoxyphenyl)pyridin-3-yl)cyclopropyl)amino)methyl)-N-isopropyl-N-(4-(3-((2S,3R,4S,5R)-1,3,4,5,6-pentahydroxyhexan-2-yl)ureido)butyl)benzenesulfonamide], the EC50 was less than 0.1 µM.

`O=C(CCC1CCN(S(=O)(=O)c2ccc(Cl)c(COC3(c4cnccc4-c4ccccc4OC4CC4)CC3)c2)C1)NC[C@H](O)[C@@H](O)[C@H](O)[C@H](O)CO` (stereo partly drawn) [Compound I-451, 3-{1-[4-chloro-3-({-[4-(2-cyclopropoxyphenyl)pyridin-3-yl]cyclopropoxy}methyl)benzenesulfonyl]pyrrolidin-3-yl}-N-[(2S,3R,4R,5R)-2,3,4,5,6-pentahydroxyhexyl]propanamide]: the EC50 was less than 0.1 µM.

Regarding `Cc1ccc(SCCCCN(C(=O)[C@@H](O)[C@@H](O)[C@H](O)[C@@H](O)CO)C2CCOCC2)cc1CNC1(c2cnccc2-c2ccccc2OC2CC2)CC1` [Compound I-560, (2S,3S,4R,5S)-N-[4-({3-[({1-[4-(2-cyclopropoxyphenyl)pyridin-3-yl]cyclopropyl}amino)methyl]-4-methylphenyl}sulfanyl)butyl]-2,3,4,5,6-pentahydroxy-N-(oxan-4-yl)hexanamide], the EC50 was 0.126 to 1 µM.
